Results: patent publication US6589771B1, “Methods for arousing dormant bacteria” (Immunom Technologies, Inc., priority 1999, dated 2003)

What was measured:
[1] = test system: S. aureus; assay: Vancomycin tolerance of aroused dormant and vegetative S. aureus; format: cell-based; details: aroused dormant forms after heat-killing of vegetative forms
Excerpt: Dormant cells of S. aureus could be enumerated and classified in the presence of their vegetative forms by heat-killing the sensitive vegetative forms while preserving the more resistant dormant forms. […] Before heating, 4×10^7 CFUs/mL were viable, after heating, no viable cells were detected until the dormant cells were aroused by osmolal downshift gradients.

[2] = test system: L. monocytogenes; assay: L. monocytogenes arousal by serial dilutions in PBS, growth on antibiotic agar; format: cell-based; details: PBS pH 7.3
[3] = test system: spores of the genera Bacillus and Clostridium; details: substance added to the buffer; neutral suspensions heated at 65° C. for 20 minutes; cited from earlier work
[4] = test system: L. monocytogenes; assay: Growth (CFUs/mL or grow-out hrs.) of dormant L. monocytogenes on agar with antibiotic after sequential PBS extractions; format: cell-based; details: for Growth in presence of ampicillin: PBS pH 7.3
Experimental: (§1) A culture containing 100% dormant bacteria was microfuged and the supernatant replaced with an equal volume of PBS, pH 7.3 and incubated at 37° C. After 20 minutes, the pellet was again recovered by centrifugation and resuspended in fresh PBS.
A 4 year old dormant broth culture of L. monocytogenes was centrifuged and the supernatant replaced with an equal volume of Dulbecco's PBS, 1×, 4×, or 10×, pH 7.3 or 6.1 for 10, 20, or 40 min. extraction periods, followed by different periods of adjustment at 37° C. This was repeated and the pellets held for various times in buffer (adjustment period) before plating on agar. Inoculated agars were held at 37° C. for various lengths of time (grow-out period).

[5] = test system: L. caseii; assay: Growth of dormant L. caseii on agar with antibiotic after sequential extractions; format: cell-based; details: for Growth in presence of 60 IU/mL ampicillin: PBS pH 7.3
Experimental: as §1
A 2 year old dormant broth culture of L. caseii was centrifuged and the supernatant replaced with an equal volume of Dulbeccos' PBS, 1× or 4× at pH 7.3, or water for 20 min. followed by different periods of adjustment at 37° C.

[6] = test system: P. aeruginosa; assay: Growth of duplex culture of P. aeruginosa with antibiotic after sequential extractions; format: cell-based; details: Dulbecco's PBS pH 7.3
Experimental: Separate cultures containing both dormant and vegetative cells of P. aeruginosa or E. coli were centrifuged and the pellets resuspended in an equal amount of Dulbecco's PBS pH 7.3 for serial extractions of 20 min. followed by different periods of adjustment at 37° C.

[7] = test system: L. monocytogenes; assay: Dialysis plus dilution of dormant L. monocytogenes, growth in presence of antibiotic; format: cell-based; details: 18 hrs. adjustment period
Experimental: An aliqout of culture was dialyzed against 250 volumes of PBS, pH 7.3 at 37° C. with stirring for 40 min. After an adjustment period of 18 hrs., the retentate was diluted serially 1:5 in PBS, pH 7.3, and streaked on agar.

[8] = test system: L. caseii; assay: Dialysis plus dilution of dormant L. caseii, growth in presence of antibiotic; format: cell-based; details: for Growth in presence of 60 IU Amp/mL: dialysis, 18 hrs. adjustment period
[9] = test system: L. plantarum ATCC 14917; assay: Dialysis of dormant L. plantarum ATCC 14917, tolerance to antibiotic; format: cell-based; details: retentate after four changes of 250 volumes of PBS, 44 hrs. of dialysis, no adjustment period
[10] = test system: L. monocytogenes; assay: Antibiotic tolerance of vegetative and aroused dormant L. monocytogenes (classification); format: cell-based; details: both native vegetative and aroused dormant cells
[11] = dilution after adjustment 1:125
[12] = dilution after adjustment: None

## CN[C@H](CC(C)C)C(=O)N[C@H]1C(=O)N[C@@H](CC(N)=O)C(=O)N[C@H]2C(=O)N[C@H]3C(=O)N[C@H](C(=O)N[C@H](C(=O)O)c4cc(O)cc(O)c4-c4cc3ccc4O)[C@H](O)c3ccc(c(Cl)c3)Oc3cc2cc(c3O[C@@H]2O[C@H](CO)[C@@H](O)[C@H](O)[C@H]2O[C@H]2C[C@](C)(N)[C@H](O)[C@H](C)O2)Oc2ccc(cc2Cl)[C@H]1O [vancomycin]
[1]
  Tolerance to 30 μg vancomycin/mL: showed tolerance

## CN(C)[C@@H]1C(O)=C(C(N)=O)C(=O)[C@@]2(O)C(O)=C3C(=O)c4c(O)cccc4[C@@](C)(O)[C@H]3C[C@@H]12 [tetracycline]
[2]; serial dilutions 1:10
  Periods of adjustment required for growth on: 30 μg TC: 144 h
[2]; serial dilutions 1:100
  Periods of adjustment required for growth on: 30 μg TC: 144 h
[2]; serial dilutions 1:1000
  Periods of adjustment required for growth on: 30 μg TC: 144 h

## Nc1ncnc2c1ncn2[C@@H]1O[C@H](CO)[C@@H](O)[C@H]1O [adenosine]
[3]
  spores that germinate: 100%

## N[C@@H](Cc1ccc(O)cc1)C(=O)O [L-tyrosine]
[3]
  spores that germinate: 100%

## C[C@H](N)C(=O)O [L-alanine]
[3]
  spores that germinate: 100%

## CC1(C)S[C@@H]2[C@H](NC(=O)[C@H](N)c3ccccc3)C(=O)N2[C@H]1C(=O)O [ampicillin]
[4]; Dulbecco's 4X PBS pH 7.3, 3 × 20 min., adjustment time 48 hrs.
  Growth in presence of 60 IU amp/mL: 24 h
[4]; Dulbecco's 4X PBS pH 7.3, 3 × 20 min., adjustment time 72 hrs.
  Growth in presence of 60 IU amp/mL: 24 h
[4]; Dulbecco's 10X PBS pH 7.3, 3 × 20 min., adjustment time 48 hrs.
  Growth in presence of 60 IU amp/mL: 24 h
[4]; Dulbecco's 10X PBS pH 7.3, 3 × 20 min., adjustment time 72 hrs.
  Growth in presence of 60 IU amp/mL: 24 h
[4]; Dulbecco's PBS pH 6.1, 5 × 20 min., adjustment time 120 hrs.
  Growth in presence of 60 IU amp/mL: 24 h
[4]; Dulbecco's PBS pH 6.1, 7 × 20 min., adjustment time 96 hrs.
  Growth in presence of 60 IU amp/mL: 24 h
[4]; Dulbecco's PBS pH 7.3, 1 × 20 min., adjustment time 0 hrs.
  Growth in presence of 60 IU amp/mL: 48 h
[4]; Dulbecco's PBS pH 7.3, 3 × 20 min., adjustment time 0 hrs.
  Growth in presence of 60 IU amp/mL: 48 h
[4]; Dulbecco's PBS pH 7.3, 3 × 20 min., adjustment time 48 hrs.
  Growth in presence of 60 IU amp/mL: 48 h
[4]; Dulbecco's PBS pH 7.3, 3 × 20 min., adjustment time 72 hrs.
  Growth in presence of 60 IU amp/mL: 48 h
[4]; Dulbecco's PBS pH 7.3, 3 × 40 min., adjustment time 96 hrs.
  Growth in presence of 60 IU amp/mL: 24 h
[4]; Dulbecco's PBS pH 7.3, 5 × 10 min., adjustment time 96 hrs.
  Growth in presence of 60 IU amp/mL: 24 h
[4]; Dulbecco's PBS pH 7.3, 6 × 10 min., adjustment time 0 hrs.
  Growth in presence of 60 IU amp/mL: 48 h
[4]; Dulbecco's PBS pH 7.3, 6 × 20 min., adjustment time 0 hrs.
  Growth in presence of 60 IU amp/mL: 48 h
[4]; Dulbecco's PBS pH 7.3, 6 × 20 min., adjustment time 48 hrs.
  Growth in presence of 60 IU amp/mL: 48 h
[4]; Dulbecco's PBS pH 7.3, 6 × 20 min., adjustment time 72 hrs.
  Growth in presence of 60 IU amp/mL: 48 h
[4]; Dulbecco's PBS pH 7.3, 7 × 40 min., adjustment time 96 hrs.
  Growth in presence of 60 IU amp/mL: 48 h
[4]; Dulbecco's PBS pH 7.3, 9 × 20 min., adjustment time 0 hrs.
  Growth in presence of 60 IU amp/mL: 48 h
[4]; Dulbecco's PBS pH 7.3, 9 × 20 min., adjustment time 48 hrs.
  Growth in presence of 60 IU amp/mL: 48 h
[4]; Dulbecco's PBS pH 7.3, 9 × 20 min., adjustment time 72 hrs.
  Growth in presence of 60 IU amp/mL: 48 h
[4]; 1st 20 min. extraction
  Growth in presence of ampicillin: 10^4 CFUs/mL
[4]; 2nd 20 min. extraction
  Growth in presence of ampicillin: 10^4 CFUs/mL
[4]; 3rd 20 min. extraction
  Growth in presence of ampicillin: 10^4 CFUs/mL
[4]; 4th 20 min. extraction
  Growth in presence of ampicillin: 10^5 CFUs/mL
[4]; 5th 20 min. extraction
  Growth in presence of ampicillin: 10^5 CFUs/mL
[4]; 6th 20 min. extraction
  Growth in presence of ampicillin: 10^5 CFUs/mL
[4]; Control (no extraction)
  Growth in presence of ampicillin: 0 CFUs/mL
[5]; L. caseii ATCC 393, Dulbecco's PBS pH 7.3, 7 × 20 min., adjustment time 144 hrs.
  Growth in presence of 60 IU amp/mL: 48 h
[5]; 1st-5th 20 min. extraction
  Growth in presence of 60 IU/mL ampicillin: 0 CFUs/mL
[5]; 6th 20 min. + 72 hrs. @ 37° C.
  Growth in presence of 60 IU/mL ampicillin: 0 CFUs/mL
[5]; 6th 20 min. + 96 hrs. @ 37° C.
  Growth in presence of 60 IU/mL ampicillin: 0 CFUs/mL
[5]; Control (no extraction)
  Growth in presence of 60 IU/mL ampicillin: 0 CFUs/mL
[6]; 3 × 20 min., adjustment time 24 hrs.
  Growth in presence of 60 IU amp/mL: 72 h
[6]; 6 × 20 min., adjustment time 0 hrs.
  Growth in presence of 60 IU amp/mL: 48 h
[2]; serial dilutions 1:10
  Periods of adjustment required for growth on: 60 IU Amp: 144 h
[2]; serial dilutions 1:100
  Periods of adjustment required for growth on: 60 IU Amp: 144 h
[2]; serial dilutions 1:125
  Periods of adjustment required for growth on: 60 IU Amp: 144 h
[2]; serial dilutions 1:1000
  Periods of adjustment required for growth on: 60 IU Amp: 144 h
[7]; dilution after adjustment 1:5
  Growth in presence of 60 IU Amp/mL: 10^4 CFUs/mL
[7]; dilution after adjustment 1:25
  Growth in presence of 60 IU Amp/mL: 10^5 CFUs/mL
[7]; [11]
  Growth in presence of 60 IU Amp/mL: 10^5 CFUs/mL
[7]; [12]
  Growth in presence of 60 IU Amp/mL: 10^3 CFUs/mL
[8]; L. caseii ATCC 393 aroused by dialysis pH 7.3, dilutions 1:5 and 1:5, adjustment period 124 hours at 37° C.
  Tolerance to ampicillin: not tolerant
[8]; dilution after adjustment 1:5
  Growth in presence of 60 IU Amp/mL: 0 CFUs/mL
[8]; dilution after adjustment 1:25
  Growth in presence of 60 IU Amp/mL: 0 CFUs/mL
[8]; [11]
  Growth in presence of 60 IU Amp/mL: 0 CFUs/mL
[8]; [12]
  Growth in presence of 60 IU Amp/mL: 0 CFUs/mL
[9]
  Tolerance to ampicillin: not tolerant
[10]
  Tolerance to 60 IU of ampicillin per mL: tolerant
